According to patent US8926966B1 (Regents of the University of California, priority 1990, dated 2015):

Test system: IDDM associated autoantibodies in sera
Test: ELISA of sera on plate-bound human GAD65 peptides
Format: binding
Conditions: for number of IDDM (at risk, pre-IDDM, at onset) patients positive (X) for the peptide (unlabelled sum line): IDDM sera of Table 11
Procedure: Patient sera and most control sera were those used in a previous study (Kaufman, et al., J. Clin. Investigation, supra) All samples were coded and tested in a blind manner. Peptides were synthesized using an automatic instrument (Applied Biosystems, Foster City, Calif.) and standard conditions. Peptides were dissolved in 60 mM sodium bicarbonate buffer (pH 9.6) at 20 ug/ml and 100 ul of each was added to duplicated wells of a 96 well Nunc-Immuno Plate. Peptides were allowed to bind at 4° C. overnight. The plates were then washed three times with PBS+0.1% Tween 20 (wash buffer), after which the plates were pre-absorbed with 3% BSA in sodium bicarbonate buffer for 0.5 hours at 37° C., or at room temperature overnight. The plates were then washed 5 times with the above wash buffer. 100 ul of serum at a 1/300 dilution in PBS+0.1% Tween 20 and 1% BSA was added to each well and antibodies were allowed to bind for 1 hour at 37° C. The plates were washed 5 times with wash buffer. 100 ul of a 1/600 dilution of HRP-goat anti-human IgG (BRL, Gaithersberg, Md.) was added to each well and allowed to bind for 1 hour at 37° C. The plates were then washed 7 times and 100 ul of substrate buffer was added to each well for 30 minutes at room temperature. The color development was measured at 410 nm using an ELISA plate reader (ICN, Biomedicals, Costa Mesa, Calif.). Positive sera were defined as: OD410 of the sample/negative control ≧3.0.

[1] = IDDM At Onset serum 705, 1/300 dilution
[2] = IDDM At Risk serum L.I., 1/300 dilution
[3] = Pre-IDDM serum J.B. (2), 1/300 dilution
[4] = Pre-IDDM serum P.T. (2), 1/300 dilution
[5] = Pre-IDDM serum R.S. (2), 1/300 dilution
[6] = IDDM At Onset serum 291, 1/300 dilution
[7] = IDDM At Onset serum 048, 1/300 dilution
[8] = IDDM At Onset serum S.H., 1/300 dilution
[9] = Pre-IDDM serum 723, 1/300 dilution
[10] = IDDM At Risk serum 052, 1/300 dilution
[11] = IDDM At Risk serum 356, 1/300 dilution
[12] = Pre-IDDM serum P.T. (1), 1/300 dilution
[13] = Pre-IDDM serum R.S. (1), 1/300 dilution
[14] = control serum 4380, 1/300 dilution
[15] = control serum 5620, 1/300 dilution
[16] = control serum 5748, 1/300 dilution
[17] = control serum A.P., 1/300 dilution
[18] = control serum S.M., 1/300 dilution

Sequence	immunoreactivity of serum with GAD65 peptide [1]	immunoreactivity of serum with GAD65 peptide [2]	number of IDDM (at risk, pre-IDDM, at onset) patients positive (X) for the peptide (unlabelled sum line)	immunoreactivity of serum with GAD65 peptide [3]	immunoreactivity of serum with GAD65 peptide [4]	immunoreactivity of serum with GAD65 peptide [5]	immunoreactivity of serum with GAD65 peptide [6]	immunoreactivity of serum with GAD65 peptide [7]	immunoreactivity of serum with GAD65 peptide [9]	immunoreactivity of serum with GAD65 peptide [10]	immunoreactivity of serum with GAD65 peptide [18]	other results
LAFLQDVMNILLQYVVKSFDRS [Peptide 8]	X (X = positive for immunoreactivity as defined by 00/background^3.0)	X (X = positive for immunoreactivity as defined by 00/background^3.0)	2	b (b = borderline response (00/background ?2.5-2.9).)	b (b = borderline response (00/background ?2.5-2.9).)	b (b = borderline response (00/background ?2.5-2.9).)	–	–	–	–	–	–
LEAKQKGFVPFLVSATAGTT [Peptide 22]	X (X = positive for immunoreactivity as defined by 00/background^3.0)	–	2	b (b = borderline response (00/background ?2.5-2.9).)	b (b = borderline response (00/background ?2.5-2.9).)	–	X (X = positive for immunoreactivity as defined by 00/background^3.0)	–	–	–	–	–
LLYGDAEKPAESGGSQPPRA [Peptide 4]	–	–	–	b (b = borderline response (00/background ?2.5-2.9).)	b (b = borderline response (00/background ?2.5-2.9).)	–	X (X = positive for immunoreactivity as defined by 00/background^3.0)	–	–	–	–	–
QKFTGGIGIGNKLCALLYGD [Peptide 3]	–	b (b = borderline response (00/background ?2.5-2.9).)	–	–	–	–	b (b = borderline response (00/background ?2.5-2.9).)	X (X = positive for immunoreactivity as defined by 00/background^3.0)	X (X = positive for immunoreactivity as defined by 00/background^3.0)	–	–	immunoreactivity of serum with GAD65 peptide [8]: X (X = positive for immunoreactivity as defined by 00/background^3.0)
QNCNQMHASYLFQQDKHYDL [Peptide 28]	–	–	–	–	–	–	–	–	–	b (b = borderline response (00/background ?2.5-2.9).)	–	–
QPPRAAARKAACACDQKPCSC [Peptide 5]	X (X = positive for immunoreactivity as defined by 00/background^3.0)	X (X = positive for immunoreactivity as defined by 00/background^3.0)	–	X (X = positive for immunoreactivity as defined by 00/background^3.0)	X (X = positive for immunoreactivity as defined by 00/background^3.0)	X (X = positive for immunoreactivity as defined by 00/background^3.0)	X (X = positive for immunoreactivity as defined by 00/background^3.0)	X (X = positive for immunoreactivity as defined by 00/background^3.0)	X (X = positive for immunoreactivity as defined by 00/background^3.0)	X (X = positive for immunoreactivity as defined by 00/background^3.0)	X (X = positive for immunoreactivity as defined by 00/background^3.0)	immunoreactivity by both control and patient sera: often positive; immunoreactivity of serum with GAD65 peptide [8]: X (X = positive for immunoreactivity as defined by 00/background^3.0); immunoreactivity of serum with GAD65 peptide [11]: X (X = positive for immunoreactivity as defined by 00/background^3.0); immunoreactivity of serum with GAD65 peptide (IDDM At Risk serum 825, 1/300 dilution): X (X = positive for immunoreactivity as defined by 00/background^3.0); immunoreactivity of serum with GAD65 peptide (Pre-IDDM serum B.Y. (1), 1/300 dilution): X (X = positive for immunoreactivity as defined by 00/background^3.0); immunoreactivity of serum with GAD65 peptide (Pre-IDDM serum B.Y. (2), 1/300 dilution): X (X = positive for immunoreactivity as defined by 00/background^3.0); immunoreactivity of serum with GAD65 peptide (Pre-IDDM serum J.A., 1/300 dilution): X (X = positive for immunoreactivity as defined by 00/background^3.0); immunoreactivity of serum with GAD65 peptide (Pre-IDDM serum J.B. (1), 1/300 dilution): b (b = borderline response (00/background ?2.5-2.9).); immunoreactivity of serum with GAD65 peptide [12]: X (X = positive for immunoreactivity as defined by 00/background^3.0); immunoreactivity of serum with GAD65 peptide [13]: X (X = positive for immunoreactivity as defined by 00/background^3.0); immunoreactivity of serum with GAD65 peptide (control serum 1688, 1/300 dilution): b (b = borderline response (00/background ?2.5-2.9).); immunoreactivity of serum with GAD65 peptide [14]: X (X = positive for immunoreactivity as defined by 00/background^3.0); immunoreactivity of serum with GAD65 peptide [15]: X (X = positive for immunoreactivity as defined by 00/background^3.0); immunoreactivity of serum with GAD65 peptide [16]: X (X = positive for immunoreactivity as defined by 00/background^3.0); immunoreactivity of serum with GAD65 peptide [17]: X (X = positive for immunoreactivity as defined by 00/background^3.0); immunoreactivity of serum with GAD65 peptide (control serum FA2, 1/300 dilution): X (X = positive for immunoreactivity as defined by 00/background^3.0); immunoreactivity of serum with GAD65 peptide (control serum FA9, 1/300 dilution): X (X = positive for immunoreactivity as defined by 00/background^3.0); immunoreactivity of serum with GAD65 peptide (control serum FA11, 1/300 dilution): X (X = positive for immunoreactivity as defined by 00/background^3.0); immunoreactivity of serum with GAD65 peptide (control serum H.B., 1/300 dilution): b (b = borderline response (00/background ?2.5-2.9).); immunoreactivity of serum with GAD65 peptide (control serum P.T., 1/300 dilution): X (X = positive for immunoreactivity as defined by 00/background^3.0)
SFDRSTKVIDFHYPNELLQE [Peptide 9]	–	–	3	–	b (b = borderline response (00/background ?2.5-2.9).)	b (b = borderline response (00/background ?2.5-2.9).)	–	X (X = positive for immunoreactivity as defined by 00/background^3.0)	X (X = positive for immunoreactivity as defined by 00/background^3.0)	b (b = borderline response (00/background ?2.5-2.9).)	X (X = positive for immunoreactivity as defined by 00/background^3.0)	immunoreactivity by both control and patient sera: often positive; number of control sera positive (X) for the peptide (unlabelled sum line) (13 control sera): 2; immunoreactivity of serum with GAD65 peptide [11]: X (X = positive for immunoreactivity as defined by 00/background^3.0); immunoreactivity of serum with GAD65 peptide [12]: b (b = borderline response (00/background ?2.5-2.9).); immunoreactivity of serum with GAD65 peptide [13]: b (b = borderline response (00/background ?2.5-2.9).); immunoreactivity of serum with GAD65 peptide [14]: b (b = borderline response (00/background ?2.5-2.9).); immunoreactivity of serum with GAD65 peptide [15]: b (b = borderline response (00/background ?2.5-2.9).); immunoreactivity of serum with GAD65 peptide [16]: b (b = borderline response (00/background ?2.5-2.9).); immunoreactivity of serum with GAD65 peptide [17]: X (X = positive for immunoreactivity as defined by 00/background^3.0)
TNMFTYEIAPVFVLLEYVTL [Peptide 14]	–	–	–	–	–	–	–	–	–	b (b = borderline response (00/background ?2.5-2.9).)	–	–
VNFFRMVISNPAATHQDIDF [Peptide 37]	X (X = positive for immunoreactivity as defined by 00/background^3.0)	–	2	–	–	–	–	–	X (X = positive for immunoreactivity as defined by 00/background^3.0)	–	–	–
VPLQCSALLVREEGLMQNCNQ [Peptide 27]	–	–	–	–	–	–	–	–	–	–	b (b = borderline response (00/background ?2.5-2.9).)	–
